From US20250011318A1 (ARCUS BIOSCIENCES, INC., priority 2023, published 2025)

Molecular target: T1, Cbl-b (Homo sapiens, UniProt Q13191)
T1 construct: biotin (biotinylated)
Assay: Cbl-b probe displacement HTRF binding assay
Conditions: 0.4 nM biotinylated Cbl-b, 150 nM BODIPY probe
Procedure: The affinity with which compounds of the present disclosure bind to Cbl-b was assessed using probe displacement homologous time resolved fluorescence (HTRF) assays. The assays used a BODIPY™ conjugated probe (Example 54 from WO 2020264398) and biotinylated Cbl-b. The assays were performed in assay buffer consisting of 20 mM Hepes, 150 mM NaCl, 0.01% Triton X-100, 0.5 mM TCEP, 0.01% BSA. On the day of the assay, a 20 point, 1:2 master serial dilution of each compound was prepared in DMSO to span a final concentration range of 10 μM to 0 nM. Two hundred nanoliters of diluted compound was added to each well of a 384-well plate. Fifteen microliters of biotinylated—Cbl-b resuspended in assay buffer were added to each well and the plate incubated for 60 minutes at room temperature prior to addition of 5 μL of BODIPY™ probe in assay buffer. Final assay conditions included 0.4 nM of Cbl-b and 150 nM of BODIPY™ probe. After a further 15 minutes of incubation at room temperature, 5 μl of Streptavidin-Terbium cryptate reagent at 5-fold final concentration was added to each well of the 384-well plate. Binding of a probe to Cbl-b results in an increase of HTRF signal. HTRF signal was measured by Envision plate reader, while competition of a compound of the present disclosure with probe results in a decrease of signal. Percentage maximum activity in each test well was calculated based on DMSO (maximum activity, 0% displacement) and no protein control wells (baseline activity, 100% displacement). Binding affinity was determined from a dose response curve fitted using a standard four parameter fit equation. See Table 3 for data for compounds (Cbl-b Binding (IC50)).

T1 sequence (Q13191 whole entry, species assumed): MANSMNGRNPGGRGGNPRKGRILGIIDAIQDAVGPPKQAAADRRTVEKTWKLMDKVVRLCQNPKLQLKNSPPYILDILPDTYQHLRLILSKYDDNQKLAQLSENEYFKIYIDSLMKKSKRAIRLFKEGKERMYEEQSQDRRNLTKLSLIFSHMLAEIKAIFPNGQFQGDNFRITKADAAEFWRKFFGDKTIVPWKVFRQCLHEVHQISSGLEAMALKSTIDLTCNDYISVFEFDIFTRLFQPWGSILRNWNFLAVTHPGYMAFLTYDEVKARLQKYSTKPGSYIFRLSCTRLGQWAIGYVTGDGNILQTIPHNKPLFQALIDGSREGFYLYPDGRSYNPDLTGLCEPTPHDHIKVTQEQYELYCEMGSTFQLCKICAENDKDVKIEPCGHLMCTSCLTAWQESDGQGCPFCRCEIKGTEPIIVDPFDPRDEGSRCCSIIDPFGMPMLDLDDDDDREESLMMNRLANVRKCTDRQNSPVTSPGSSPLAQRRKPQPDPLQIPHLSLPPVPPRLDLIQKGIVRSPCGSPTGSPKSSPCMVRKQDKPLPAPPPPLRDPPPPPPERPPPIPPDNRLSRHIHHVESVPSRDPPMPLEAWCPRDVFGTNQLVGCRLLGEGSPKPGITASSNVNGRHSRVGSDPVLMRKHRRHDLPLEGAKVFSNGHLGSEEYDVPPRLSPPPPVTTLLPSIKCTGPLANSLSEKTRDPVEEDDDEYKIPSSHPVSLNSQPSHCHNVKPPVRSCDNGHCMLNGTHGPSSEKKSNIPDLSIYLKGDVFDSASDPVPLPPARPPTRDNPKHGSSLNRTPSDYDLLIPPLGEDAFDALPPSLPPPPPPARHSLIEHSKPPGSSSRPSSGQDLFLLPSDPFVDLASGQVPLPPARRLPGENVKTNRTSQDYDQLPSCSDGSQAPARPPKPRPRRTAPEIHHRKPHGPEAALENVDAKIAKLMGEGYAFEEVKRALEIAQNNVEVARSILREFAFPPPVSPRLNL

IC50 [nM] | SMILES
< 100 | C[C@H]1CCCN(Cc2cc3c(C4CC4)cn(-c4cc(-c5ccc(F)cc5-c5nncn5C)cc(C5CC5)n4)c(=O)c3[nH]2)C1 [Example 10, 2-{[(S)-3-Methyl-1-piperidyl]methyl}-4-cyclopropyl-6-{6-cyclopropyl-4-[4-fluoro-2-(4-methyl-4H-1,2,4-triazol-3-yl)phenyl]-2-pyridyl}-1,6-dihydro-1,6-diaza-7-indenone]
< 100 | C[C@H]1CCCN(Cc2cc3c(C4CC4)cn(-c4cc(-c5ccc(C#N)cc5-c5nccn5C)cc(C5CC5)n4)c(=O)c3[nH]2)C1 [Example 13, 4-[2-(2-{[(S)-3-methyl-1-piperidyl]methyl}-4-cyclopropyl-7-oxo-1,6-dihydro-1,6-diaza-6-indenyl)-6-cyclopropyl-4-pyridyl]-3-(1-methyl-2-imidazolyl)benzonitrile]
< 100 | CO[C@@H](C)CNCc1nc2c(C(F)(F)F)cn(-c3cc(-c4ccc(F)cc4-c4ncoc4C)cc(C4CC4)n3)c(=O)c2[nH]1 [Example 49, 2-{[(S)-2-methoxypropylamino]methyl}-5-{6-cyclopropyl-4-[4-fluoro-2-(5-methyl-1,3-oxazol-4-yl)phenyl]-2-pyridyl}-7-(trifluoromethyl)-3,5-dihydro-1,3,5-triaza-4-indenone]
< 100 | COCCNCc1cc2ncn(-c3cc(-c4ccc(C#N)cc4-c4ncoc4C)cc(C4CC4)n3)c(=O)c2[nH]1 [Example 72, 4-(6-cyclopropyl-2-{2-[(2-methoxyethylamino)methyl]-7-oxo-1,6-dihydro-1,4,6-triaza-6-indenyl}-4-pyridyl)-3-(5-methyl-1,3-oxazol-4-yl)benzonitrile]
< 100 | COCCNCc1cc2ncn(-c3cc(-c4ccc(F)cc4-c4ncoc4C)cc(C4CC4)n3)c(=O)c2[nH]1 [Example 78, 6-{6-cyclopropyl-4-[4-fluoro-2-(5-methyl-1,3-oxazol-4-yl)phenyl]-2-pyridyl}-2-[(2-methoxyethylamino)methyl]-1,6-dihydro-1,4,6-triaza-7-indenone]
< 100 | COC[C@H](C)NCc1cc2ncn(-c3cc(-c4ccc(F)cc4-c4ncoc4C)cc(C4CC4)n3)c(=O)c2[nH]1 [Example 79, 2-{[(S)-2-methoxy-1-methylethylamino]methyl}-6-{6-cyclopropyl-4-[4-fluoro-2-(5-methyl-1,3-oxazol-4-yl)phenyl]-2-pyridyl}-1,6-dihydro-1,4,6-triaza-7-indenone]
< 100 | CCOCCNCc1cc2ncn(-c3cc(-c4ccc(F)cc4-c4ncoc4C)cc(C4CC4)n3)c(=O)c2[nH]1 [Example 80, 6-{6-cyclopropyl-4-[4-fluoro-2-(5-methyl-1,3-oxazol-4-yl)phenyl]-2-pyridyl}-2-[(2-ethoxyethylamino)methyl]-1,6-dihydro-1,4,6-triaza-7-indenone]
< 100 | CO[C@@H](C)CN(C)Cc1cc2ncn(-c3cc(-c4ccc(F)cc4-c4nc(C#N)cn4C)cc(C4CC4)n3)c(=O)c2[nH]1 [Example 113, 2-[2-[2-cyclopropyl-6-[6-[[[(2S)-2-methoxypropyl]-methylamino]methyl]-4-oxo-5H-pyrrolo[3,2-d]pyrimidin-3-yl]pyridin-4-yl]-5-fluorophenyl]-1-methyl-imidazole-4-carbonitrile]
